Reference: US6555333B1, “Broad spectrum fastidious organism culture medium” (priority 2002, dated 2003)
Like-named read-outs stand apart in the source and are kept apart here.

Experiments:
[1] = test system: Campylobacter species; assay: MIC testing (Etest strip) on the culture medium of Example 1; format: cell-based; conditions: microaerophilic, 48 hours; for Observed MIC Breakpoints R: R = resistant; for Observed MIC Breakpoints S: S = susceptible
Excerpt: (§1) The culture medium of the invention was used in both Minimum Inhibitory Concentration (MIC) testing and Bauer-Kirby Disk Susceptibility testing for the pathogenic bacteria noted in the table below with the antimicrobial agents noted therein using the protocol and standards set forth in NCCLS Bulletin No. M2-A7 and in the Supplemental Tables appendix thereto, the disclosures of which are incorporated herein by reference.
(§2) The general procedure was as follows: pathogenic bacteria specimens were obtained from American Type Culture Collection control lots and 10 isolates were obtained from all species except Campylobacter, from which 6 isolates were obtained. Petri dishes 150 mm in diameter were autoclaved and filled with the culture medium of Example 1 and brought to room temperature. Each plate was then swab-inoculated with a suspension of one of the pathogenic bacteria equivalent to a 0.5 McFarland Standard, and then the antimicrobial-impregnated disk or antimicrobial-impregnated strip for IC measurement (Etest strip from Biodisk AB, of Solna, Sweden) were pressed into the surface of the culture medium. The plates were incubated at 35° C. for 24 hours in atmospheres containing 5-7% CO2 and the disk diffusion zones were measured, with the exception that plates inoculated with the Campylobacter species were placed into microaerophilic chambers from Mitsubishi Gas & Chemical Co. of Japan and incubated at 35° C. for 48 hours. The tests were conducted in duplicate for each pathogenic bacteria/antimicrobial agent combination on three batches of the culture medium of Example 1, for a total of six tests for each combination. Geometric mean MIC values and arithmetic mean values of zone diameters from the Disk Diffusion tests were calculated from the data, and are reported in the table below.

[2] = test system: Neisseria gonorrhoeae; assay: as above; format: cell-based; conditions: for Observed MIC Breakpoints I: I = intermediate; for Observed MIC Breakpoints R: R = resistant; for Observed MIC Breakpoints S: S = susceptible
Excerpt: as §1, §2

[3] = test system: Campylobacter species; assay: Bauer-Kirby Disk Susceptibility testing on the culture medium of Example 1; format: cell-based; conditions: microaerophilic, 48 hours; for Observed Disk Diff. Breakpoints R: R = resistant; for Observed Disk Diff. Breakpoints S: S = susceptible
Excerpt: as §1, §2

[4] = test system: Neisseria gonorrhoeae; assay: as above; format: cell-based; conditions: for Observed Disk Diff. Breakpoints I: I = intermediate; for Observed Disk Diff. Breakpoints R: R = resistant
Excerpt: as §1, §2

[5] = test system: Neisseria gonorrhoeae; conditions: different known culture media; cited from earlier work
[6] = test system: S. pneumoniae; assay: MIC testing (Etest strip) on the culture medium of Example 1; format: cell-based; conditions: for Observed MIC Breakpoints I: I = intermediate; for Observed MIC Breakpoints R: R = resistant; for Observed MIC Breakpoints S: S = susceptible
Excerpt: as §1, §2

[7] = test system: Viridans streptococci; assay: as above; format: cell-based; conditions: for Observed MIC Breakpoints I: I = intermediate; for Observed MIC Breakpoints R: R = resistant; for Observed MIC Breakpoints S: S = susceptible
Excerpt: as §1, §2

[8] = test system: β-hemolytic streptococci; assay: as above; format: cell-based; conditions: for Observed MIC Breakpoints S: S = susceptible
Excerpt: as §1, §2

[9] = test system: S. pneumoniae; assay: Bauer-Kirby Disk Susceptibility testing on the culture medium of Example 1; format: cell-based; conditions: for Observed Disk Diff. Breakpoints I: I = intermediate; for Observed Disk Diff. Breakpoints R: R = resistant; for Observed Disk Diff. Breakpoints S: S = susceptible
Excerpt: as §1, §2

[10] = test system: Viridans streptococci; assay: as above; format: cell-based; conditions: for Observed Disk Diff. Breakpoints I: I = intermediate; for Observed Disk Diff. Breakpoints R: R = resistant; for Observed Disk Diff. Breakpoints S: S = susceptible
Excerpt: as §1, §2

[11] = test system: β-hemolytic streptococci; assay: as above; format: cell-based; conditions: for Observed Disk Diff. Breakpoints R: R = resistant
Excerpt: as §1, §2

[12] = test system: S. pneumoniae; conditions: different known culture media, cited from earlier work
[13] = test system: Viridans streptococci; conditions: different known culture media; cited from earlier work
[14] = test system: β-hemolytic streptococci; conditions: different known culture media; cited from earlier work
[15] = test system: Haemophilus influenzae; assay: MIC testing (Etest strip) on the culture medium of Example 1; format: cell-based
Excerpt: as §1, §2

[16] = test system: Haemophilus influenzae; assay: Bauer-Kirby Disk Susceptibility testing on the culture medium of Example 1; format: cell-based
Excerpt: as §1, §2

[17] = test system: Neisseria meningitides; assay: MIC testing (Etest strip) on the culture medium of Example 1; format: cell-based
Excerpt: as §1, §2

[18] = test system: Neisseria meningitides; assay: Bauer-Kirby Disk Susceptibility testing on the culture medium of Example 1; format: cell-based
Excerpt: as §1, §2

Row | Observed MIC Breakpoints R [1] | Observed MIC Breakpoints S [1] | Molecule | Observed MIC Breakpoints I [2] [µg/mL] | Observed MIC Breakpoints R [2] | Observed MIC Breakpoints S [2] | Observed Disk Diff. Breakpoints R [3] | Observed Disk Diff. Breakpoints S [3] | Observed Disk Diff. Breakpoints I [4] | Observed Disk Diff. Breakpoints R [4] | Reported MIC Breakpoints [5] | Observed MIC Breakpoints I [6] [µg/mL] | Observed MIC Breakpoints R [6] | Observed MIC Breakpoints S [6] | Observed MIC Breakpoints I [7] [µg/mL] | Observed MIC Breakpoints R [7] | Observed MIC Breakpoints S [7] | Observed MIC Breakpoints S [8] | Observed Disk Diff. Breakpoints I [10] | Observed Disk Diff. Breakpoints R [10] | Observed Disk Diff. Breakpoints S [10] | other results
1 | ≧4 μg/mL | ≦0.5 μg/mL | O=C(O)c1cn(C2CC2)c2cc(N3CCNCC3)c(F)cc2c1=O [Ciprofloxacin] | 0.12 to 0.5 | ≧1 μg/mL | ≦0.06 μg/mL | ≦18 mm | ≧27 mm | 25-34 mm | ≦24 mm | (0.06-1) μg/mL | – | – | – | – | – | – | – | – | – | – | Observed MIC Breakpoints I ([1]; I = intermediate): 1 to 2 µg/mL; Observed Disk Diff. Breakpoints I ([3]; I = intermediate): 19-26 mm; Observed Disk Diff. Breakpoints S ([4]; S = susceptible): ≧35 mm
2 | ≧8 μg/mL | ≦4 μg/mL | CC[C@H]1OC(=O)[C@H](C)[C@@H](O[C@H]2C[C@@](C)(OC)[C@@H](O)[C@H](C)O2)[C@H](C)[C@@H](O[C@@H]2O[C@H](C)C[C@H](N(C)C)[C@H]2O)[C@](C)(O)C[C@@H](C)C(=O)[C@H](C)[C@@H](O)[C@]1(C)O [Erythromycin] | – | – | – | ≦20 mm | ≧21 mm | – | – | – | 1 to 32 | ≧64 μg/mL | ≦0.5 μg/mL | 1 to 32 | ≧64 μg/mL | ≦0.5 μg/mL | ≦0.5 μg/mL | 9-23 mm | ≦8 mm | ≧24 mm | Observed MIC Breakpoints I ([8]; I = intermediate): 1 to 32 µg/mL; Observed MIC Breakpoints R ([8]; R = resistant): ≧64 μg/mL; Observed Disk Diff. Breakpoints I [9]: 9-23 mm; Observed Disk Diff. Breakpoints R [9]: ≦8 mm; Observed Disk Diff. Breakpoints S [9]: ≧24 mm; Observed Disk Diff. Breakpoints R [11]: ≦8 mm; Observed Disk Diff. Breakpoints S ([11]; S = susceptible): ≧21 mm; Reported MIC Breakpoints [12]: (0.25-1) μg/mL; Reported MIC Breakpoints [13]: (0.25-1) μg/mL; Reported MIC Breakpoints [14]: (0.25-1) μg/mL
3 | – | – | CN(C)[C@@H]1C(O)=C(C(N)=O)C(=O)[C@@]2(O)C(O)=C3C(=O)c4c(O)cccc4[C@@](C)(O)[C@H]3C[C@@H]12 [Tetracycline] | – | – | – | – | – | – | – | – | 2 to 4 | ≧8 μg/mL | ≦1 μg/mL | 2 to 4 | ≧8 μg/mL | ≦1 μg/mL | – | 18-22 mm | ≦17 mm | ≧23 mm | Observed MIC Breakpoints I ([15]; I = intermediate): 4 µg/mL; Observed MIC Breakpoints R ([15]; R = resistant): ≧8 μg/mL; Observed MIC Breakpoints S ([15]; S = susceptible): ≦2 μg/mL; Observed Disk Diff. Breakpoints I ([16]; I = intermediate): 19-24 mm; Observed Disk Diff. Breakpoints R ([16]; R = resistant): ≦20 mm; Observed Disk Diff. Breakpoints S ([16]; S = susceptible): ≧25 mm; Observed Disk Diff. Breakpoints I [9]: 14-22 mm; Observed Disk Diff. Breakpoints R [9]: ≦13 mm; Observed Disk Diff. Breakpoints S [9]: ≧23 mm
4 | – | – | Penicillin | 0.12 to 1 | ≧2 μg/mL | ≦0.06 μg/mL | – | – | 24-38 mm | ≦23 mm | (0.06-2) μg/mL | – | – | – | 2 | ≧4 μg/mL | ≦1 μg/mL | 0.12 µg/mL | 20-23 mm | ≦19 mm | ≧24 mm | Observed MIC Breakpoints I ([17]; I = intermediate): 0.25 µg/mL; Observed MIC Breakpoints R ([17]; R = resistant): ≧0.5 μg/mL; Observed MIC Breakpoints S ([17]; S = susceptible): ≦0.12 μg/mL; Observed MIC Breakpoints I ([6]; Lower Respiratory Tract): 2 µg/mL; Observed MIC Breakpoints R ([6]; Lower Respiratory Tract): ≧4 μg/mL; Observed MIC Breakpoints S ([6]; Lower Respiratory Tract): ≦1 μg/mL; Observed MIC Breakpoints I ([6]; meningitis): 0.25 to 1 µg/mL; Observed MIC Breakpoints R ([6]; meningitis): ≧2 μg/mL; Observed MIC Breakpoints S ([6]; meningitis): ≦0.12 μg/mL; Observed Disk Diff. Breakpoints I ([18]; I = intermediate): 24-25 mm; Observed Disk Diff. Breakpoints R ([18]; R = resistant): ≦23 mm; Observed Disk Diff. Breakpoints S ([18]; S = susceptible): ≧26 mm; Observed Disk Diff. Breakpoints R [11]: ≦26 mm; Reported MIC Breakpoints ([12]; meningitis): (0.06-2) μg/mL; Reported MIC Breakpoints [13]: (0.12-4) μg/mL
